Reference: the supplement of paper PMC11061612

Legend:
Assay in all cases: Bliss excess, mean over the matrix (fraction); higher = more synergy
[1] = tested on: CaR-1 (Colorectal Carcinoma)
Procedure, shortened: (§1)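 After 24 hours at 37°C and 5% CO2 in 1536-well plates, cells in DMEM/F12 or RPMI plus 10% FBS received two-drug dose matrices for 72 hours. Viability came from CellTiter-Glo 2.0 luminescence and was scaled as inhibition, anchored at 0 by vehicle wells and at 1 by blank wells. Combination Emax is taken as the second-highest inhibition in the matrix, and Bliss excess as the observed combination effect less EA + EB − EA·EB, with EA and EB the single-agent effects.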

[2] = tested on: Calu-3 (Lung Adenocarcinoma)
Procedure, shortened: as §1

[3] = tested on: MDA-MB-361 (Breast Carcinoma)
Procedure, shortened: as §1

[4] = tested on: HuP-T4 (Pancreatic Carcinoma)
Procedure, shortened: as §1

[5] = tested on: LS-180 (Colorectal Carcinoma)
Procedure, shortened: as §1

[6] = tested on: LNCaP-Clone-FGC (Prostate Carcinoma)
Procedure, shortened: as §1

[7] = tested on: KYSE-520 (Esophageal Squamous Cell Carcinoma)
Procedure, shortened: as §1

KELLY (Neuroblastoma) = tested on: KELLY (Neuroblastoma)
Procedure, shortened: as §1

[8] = tested on: MFE-296 (Endometrial Carcinoma)
Procedure, shortened: as §1

[9] = tested on: KP-1N (Pancreatic Carcinoma)
Procedure, shortened: as §1

NB10 (Neuroblastoma) = tested on: NB10 (Neuroblastoma)
Procedure, shortened: as §1

[10] = tested on: CAL-148 (Breast Carcinoma)
Procedure, shortened: as §1

[11] = tested on: LB831-BLC (Bladder Carcinoma)
Procedure, shortened: as §1

[12] = tested on: HT-1376 (Bladder Carcinoma)
Procedure, shortened: as §1

[13] = tested on: B-CPAP (Thyroid Gland Carcinoma)
Procedure, shortened: as §1

[14] = tested on: KURAMOCHI (Ovarian Carcinoma)
Procedure, shortened: as §1

[15] = tested on: OVCA420 (Ovarian Carcinoma)
Procedure, shortened: as §1

[16] = tested on: Daoy (Other Solid Carcinomas)
Procedure, shortened: as §1

[17] = tested on: HCC1806 (Breast Carcinoma)
Procedure, shortened: as §1

[18] = tested on: Hs-578-T (Breast Carcinoma)
Procedure, shortened: as §1

CC1(C)CCC(CN2CCN(c3ccc(C(=O)NS(=O)(=O)c4ccc(NCC5CCOCC5)c([N+](=O)[O-])c4)c(Oc4cnc5[nH]ccc5c4)c3)CC2)=C(c2ccc(Cl)cc2)C1 [Venetoclax] + C1CN(CCC1(C(=O)N[C@@H](CCO)C2=CC=C(C=C2)Cl)N)C3=NC=NC4=C3C=CN4 [Capivasertib] (first compound max 1 µM, 7x7, partner max 3 µM)
Bliss excess [1]: -0.0045 | Bliss excess [2]: -0.0116 | Bliss excess [3]: 0.0068 | Bliss excess [4]: -0.033 | Bliss excess [5]: -0.0173 | Bliss excess [6]: -0.0464 | Bliss excess [7]: -0.0575 | Bliss excess (KELLY (Neuroblastoma)): 0.0017 | Bliss excess [8]: -0.0063 | Bliss excess [9]: -0.0193 | Bliss excess (NB10 (Neuroblastoma)): -0.0808 | Bliss excess [10]: -0.0444 | Bliss excess [11]: -0.0272 | Bliss excess [12]: -0.0621 | Bliss excess [13]: -0.0312 | Bliss excess [14]: -0.0538 | Bliss excess [15]: -0.0357 | Bliss excess [16]: 0.0117 | Bliss excess [17]: -0.0087 | Bliss excess [18]: -0.0255

CC1(C)CCC(CN2CCN(c3ccc(C(=O)NS(=O)(=O)c4ccc(NCC5CCOCC5)c([N+](=O)[O-])c4)c(Oc4cnc5[nH]ccc5c4)c3)CC2)=C(c2ccc(Cl)cc2)C1 [Venetoclax] + COc1cc(Nc2ncc3c(n2)-c2ccc(Cl)cc2C(c2c(F)cccc2OC)=NC3)ccc1C(=O)O [Alisertib] (first compound max 1 µM, 7x7, partner max 10 µM)
Bliss excess [1]: 0.008 | Bliss excess [2]: -0.0228 | Bliss excess [3]: 0.147 | Bliss excess [4]: 0.0336 | Bliss excess [5]: -0.008 | Bliss excess [6]: 0.0008 | Bliss excess [7]: -0.0489 | Bliss excess (KELLY (Neuroblastoma)): 0.0343 | Bliss excess [8]: -0.0285 | Bliss excess [9]: 0.0194 | Bliss excess (NB10 (Neuroblastoma)): -0.0052 | Bliss excess [10]: -0.0175 | Bliss excess [11]: -0.0354 | Bliss excess [12]: -0.0812 | Bliss excess [13]: -0.0128 | Bliss excess [14]: -0.0992 | Bliss excess [15]: -0.025 | Bliss excess [16]: 0.105 | Bliss excess [17]: 0.0042 | Bliss excess [18]: 0.107

Cc1c2c(nn1C)CSCc1cc(n(C)n1)CSc1cc(c3ccccc3c1)OCCCc1c(C(=O)O)n(C)c3c-2c(Cl)ccc13 [AZD5991] + CN(C)CCCOc1ccc(-c2ccc3ncc4c(c3c2)n(C2CCOCC2)c(=O)n4C)cn1 [AZD0156] (first compound max 1 µM, 7x7, partner max 1 µM)
Bliss excess [1]: -0.0271 | Bliss excess [2]: 0.0066 | Bliss excess [3]: -0.016 | Bliss excess [4]: 0.0351 | Bliss excess [5]: 0.0054 | Bliss excess [6]: -0.0275 | Bliss excess [7]: 0.0045 | Bliss excess (KELLY (Neuroblastoma)): -0.0469 | Bliss excess [8]: 0.0092 | Bliss excess [9]: -0.0132 | Bliss excess (NB10 (Neuroblastoma)): 0.0269 | Bliss excess [10]: 0.0528 | Bliss excess [11]: 0.0072 | Bliss excess [12]: 0.0039 | Bliss excess [13]: 0.0094 | Bliss excess [14]: -0.0666 | Bliss excess [15]: -0.0333 | Bliss excess [16]: 0.0145 | Bliss excess [17]: 0.0346 | Bliss excess [18]: 0.0816

CN(C)CCCOc1ccc(-c2ccc3ncc4c(c3c2)n(C2CCOCC2)c(=O)n4C)cn1 [AZD0156] + O=C(c1cc(Cc2n[nH]c(=O)c3ccccc23)ccc1F)N1CCN(C(=O)C2CC2)CC1 [Olaparib] (first compound max 3 µM, partner max 3 µM)
Bliss excess [1]: -0.0014 | Bliss excess [2]: -0.0153 | Bliss excess [3]: 0.0254 | Bliss excess [4]: 0.125 | Bliss excess [5]: -0.002 | Bliss excess [6]: 0.0755 | Bliss excess [7]: -0.0172 | Bliss excess (KELLY (Neuroblastoma)): 0.0009 | Bliss excess [8]: -0.0153 | Bliss excess [9]: -0.0043 | Bliss excess (NB10 (Neuroblastoma)): 0.334 | Bliss excess [10]: 0.0072 | Bliss excess [11]: -0.0407 | Bliss excess [12]: -0.0417 | Bliss excess [13]: 0.0785 | Bliss excess [14]: -0.0737 | Bliss excess [15]: 0.0121 | Bliss excess [16]: 0.0714 | Bliss excess [17]: 0.191 | Bliss excess [18]: 0.0937

C=CCn1c(=O)c2cnc(Nc3ccc(N4CCN(C)CC4)cc3)nc2n1-c1cccc(C(C)(C)O)n1 [AZD1775] + C1CN(CCC1(C(=O)N[C@@H](CCO)C2=CC=C(C=C2)Cl)N)C3=NC=NC4=C3C=CN4 [Capivasertib] (first compound max 3 µM, partner max 3 µM)
Bliss excess [1]: 0.0453 | Bliss excess [2]: -0.0761 | Bliss excess [3]: -0.0156 | Bliss excess [4]: -0.0779 | Bliss excess [5]: -0.0513 | Bliss excess [6]: -0.0492 | Bliss excess [7]: -0.0129 | Bliss excess (KELLY (Neuroblastoma)): -0.0393 | Bliss excess [8]: -0.0091 | Bliss excess [9]: -0.0101 | Bliss excess (NB10 (Neuroblastoma)): -0.18 | Bliss excess [10]: -0.0405 | Bliss excess [11]: -0.0434 | Bliss excess [12]: 0.0513 | Bliss excess [13]: 0.0065 | Bliss excess [14]: -0.072 | Bliss excess [15]: -0.0518 | Bliss excess [16]: -0.0474 | Bliss excess [17]: 0.0151 | Bliss excess [18]: -0.102

CC(=O)c1c(C)c2cnc(Nc3ccc(N4CCNCC4)cn3)nc2n(C2CCCC2)c1=O [Palbociclib] + Cn1cnc2c(F)c(Nc3ccc(Br)cc3Cl)c(C(=O)NOCCO)cc21 [Selumetinib] (first compound max 10 µM, 7x7, partner max 10 µM)
Bliss excess [1]: -0.0229 | Bliss excess [2]: -0.0095 | Bliss excess [3]: -0.0238 | Bliss excess [4]: 0.0396 | Bliss excess [5]: 0.0098 | Bliss excess [6]: 0.0237 | Bliss excess [7]: 0.0617 | Bliss excess (KELLY (Neuroblastoma)): 0.09 | Bliss excess [8]: -0.0574 | Bliss excess [9]: -0.0715 | Bliss excess (NB10 (Neuroblastoma)): 0.0998 | Bliss excess [10]: -0.0462 | Bliss excess [11]: -0.0339 | Bliss excess [12]: -0.047 | Bliss excess [13]: 0.0321 | Bliss excess [14]: 0.0078 | Bliss excess [15]: -0.0157 | Bliss excess [16]: -0.0082 | Bliss excess [17]: 0.0382 | Bliss excess [18]: 0.0135
